From US20240381872A1, “SUBSTITUTED 2,3-DIHYDRO[1,3]THIAZOLO[4,5-B]PYRIDINES, SALTS THEREOF AND THEIR USE AS HERBICIDALLY ACTIVE SUBSTANCES” (BAYER AKTIENGESELLSCHAFT, priority 2021, published 2024) come the findings set out here.

What all share (type): in vivo
Assay [1] deals with Digitaria sanguinalis (DIGSA). The assay is described as follows: Herbicidal post-emergence action, section B (Table B12). Conditions: application rate 1280 g/ha, visual rating about 3 weeks after treatment vs untreated controls. A digest of the protocol: (§1)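 Post-emergence greenhouse test: weeds sown in sandy loam, treated at one-leaf stage 2–3 weeks after sowing with WP or EC formulations sprayed as aqueous suspension/emulsion plus 0.5% additive at 600 L/ha. Activity rated visually versus untreated controls after about 3 weeks (100% = plants dead, 0% = like control).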

A further assay relates to Oryza sativa (ORYZA). The assay is described as follows: Post-emergence effects on crop plants, section F (Table F3). Conditions: for post-emergence activity against ORYZA in %: crop plant damage; for percent crop plant damage at 80 g/ha: application rate 80 g/ha. The source says:
Seeds of mono- and dicotyledonous weed plants and crop plants were sown, in plastic or organic planting pots, in sandy loam, covered with soil and grown in a greenhouse under controlled growth conditions. 2 to 3 weeks after sowing, the test plants were sprayed in the single-leaf stage. The compounds according to the invention, formulated in form of wettable powders (WP) or as emulsifiable concentrates (EC), were sprayed onto the green plant parts as aqueous suspension or emulsion, with the addition of 0.5% of an additive, at an application rate of 600 l of water/ha (converted). The test plants were placed in the greenhouse for ca. 3 weeks under optimum growth conditions, and then the effect of the preparations was assessed visually in comparison with untreated controls (herbicidal effect in percent (%): 100% effect=plants have died off, 0% effect=as control plants). Tables F1 to F4 below show the effects of selected compounds of the general formula (I) according to Table 1 on various crop plants and an application rate corresponding to 320 g/ha or below obtained by the experimental procedure mentioned above.

The test system of assay [2] is Alopecurus myosuroides (ALOMY). The assay is described as follows: Herbicidal pre-emergence action, section A (Table A2). Conditions: application rate 1280 g/ha, visual grading after ca. 3 weeks vs untreated controls; for pest or weed control at 1280 g/ha: Alopecurus myosuroides, pre-emergence, 504 h, read-out: pre-emergence activity against ALOMY in %. The method, boiled down: (§2)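 Read-out is visual herbicidal effect in percent (100% = plants died, 0% = as control), graded ca. 3 weeks after treatment. Test compounds as WP or EC were applied to covering soil over sown seeds with 0.5% additive, 600 l water per hectare; greenhouse growth.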

The subject of assay [3] is Echinochloa crus-galli (ECHCG). The assay is described as follows: Herbicidal pre-emergence action, section C (Table C3). To be noted: visual grading after ca. 3 weeks vs untreated controls; for pest or weed control at 80 g/ha: application rate 80 g/ha. The method, boiled down: (§3)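 Pre-emergence, sandy loam. WP/EC formulations applied to covering soil surface, aqueous, + 0.5% additive, 600 l water/ha. Greenhouse, optimum growth. Visual % damage vs untreated, ca. 3 wk.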

The subject of another assay is Kochia scoparia (KCHSC). The assay is described as follows: Herbicidal post-emergence action, section B (Table B4). Conditions: visual rating about 3 weeks after treatment vs untreated controls; for pest or weed control at 320 g/ha: Bassia scoparia, post-emergence, 504 h, read-out: post-emergence activity against KCHSC in %. The method, boiled down:
as §1

In another assay the test system is Setaria viridis (SETVI). The assay is described as follows: Herbicidal pre-emergence action, section A (Table A8). To be noted: for pest or weed control at 320 g/ha: Setaria viridis, 504 h, read-out: pre-emergence activity against SETVI in %. The method, boiled down:
as §2

Assay [4] concerns Veronica persica (VERPE). The assay is described as follows: Herbicidal pre-emergence action, section A (Table A10). Conditions: for pest or weed control at 320 g/ha: application rate 320 g/ha. A digest of the protocol:
as §2

The subject of another assay is Lolium rigidum (LOLRI). The assay is described as follows: Herbicidal pre-emergence action, section C (Table C5). Conditions: application rate 320 g/ha, visual grading after ca. 3 weeks. The source says: Seeds of mono- and dicotyledonous weed plants and crop plants were sown, in plastic or organic planting pots, in sandy loam and covered with soil. The compounds according to the invention, formulated in the form of wettable powders (WP) or as emulsifiable concentrates (EC), were applied to the surface of the covering soil as aqueous suspension or emulsion, with the addition of 0.5% of an additive, at an application rate of 600 l of water/ha (converted). Following treatment, the pots were placed in a greenhouse and kept under optimum growth conditions for the test plants. The visual grading of the damage to the test plants was carried out after ca. 3 weeks in comparison to untreated controls (herbicidal effect in percent (%): 100% effect=plants have died off, 0% effect=as control plants).

Assay [5] deals with Echinochloa crus-galli (ECHCG). The assay is described as follows: Herbicidal post-emergence action, section B (Table B3). To be noted: rated visually after about 3 weeks. The method, boiled down:
as §1

Assay [6] has as its system Amaranthus retroflexus (AMARE). The assay is described as follows: Herbicidal pre-emergence action, section C (Table C11). Conditions: application rate 80 g/ha, visual grading after ca. 3 weeks; for pest or weed control at 80 g/ha: Amaranthus retroflexus, pre-emergence, 504 h, read-out: pre-emergence activity against AMARE in %. A digest of the protocol:
as §3

Assay [7] has as its system Veronica persica (VERPE). The assay is described as follows: Herbicidal post-emergence action, section E (Table E9). To be noted: application rate 320 g/ha, visual assessment ca. 3 weeks after spraying. A digest of the protocol: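 Post-emergence greenhouse spray onto single-leaf-stage plants raised in sandy loam, using WP or EC formulations with 0.5% additive at 600 l water/ha. Effect is the visual percentage damage relative to untreated controls after about 3 weeks.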

Setting [8] is: Oryza sativa, 504 h, read-out: post-emergence activity against ORYZA in %.
Setting [9] is: Echinochloa crus-galli, pre-emergence, 504 h, read-out: pre-emergence activity against ECHCG in %.
Where [10] appears, read: Veronica persica, 504 h, read-out: pre-emergence activity against VERPE in %.

Regarding `COC(=O)CCC(=O)N1CSc2cc(Cl)c(-c3ccccc3F)nc21` [Example I-003], in assay [1], the “post-emergence activity against DIGSA in %” value was determined as 100%. Further, the “post-emergence activity against ORYZA in %” value in the assay on Oryza sativa (ORYZA) (application rate 320 g/ha) stood at 0%. Further, the “pre-emergence activity against ALOMY in %” value in assay [2] is 100%. Besides, the “pre-emergence activity against ECHCG in %” value in assay [3] (application rate 320 g/ha) stood at 80%. Further, in the assay with Kochia scoparia (KCHSC) (application rate 320 g/ha), the “post-emergence activity against KCHSC in %” value came out at 90%. The “pre-emergence activity against SETVI in %” value in the assay on Setaria viridis (SETVI) (application rate 320 g/ha) is reported as 100%. Moreover, the “pre-emergence activity against VERPE in %” value in the assay with Veronica persica (VERPE) [4] (application rate 1280 g/ha) stood at 90%.
Turning to `BN1CSc2cc(Br)c(-c3ccccc3C)nc21` [Example I-011], the “post-emergence activity against ORYZA in %” value with Oryza sativa (ORYZA) (application rate 320 g/ha) was 0%. Besides, the “pre-emergence activity against LOLRI in %” value with Lolium rigidum (LOLRI) is on record as 100%. The “pre-emergence activity against ECHCG in %” value in assay [3] (application rate 320 g/ha) is given as 100%. In the assay on Kochia scoparia (KCHSC) (application rate 1280 g/ha), the “post-emergence activity against KCHSC in %” value was 90%. Besides, in the assay with Setaria viridis (SETVI) (application rate 1280 g/ha), the “pre-emergence activity against SETVI in %” value turned out to be 90%. The “post-emergence activity against ECHCG in %” value in [5] (application rate 1280 g/ha) is given as 90%. The “pre-emergence activity against VERPE in %” value in the assay with Veronica persica (VERPE) [4] (application rate 1280 g/ha) worked out at 90%.
As to `Cc1cc2c(nc1-c1cccc(F)c1F)NCS2` [Example I-029, 5-(2,3-difluorophenyl)-6-methyl-2,3-dihydro[1,3]thiazolo[4,5-b]pyridine], in the assay with Oryza sativa (ORYZA) (setting [8]), the percent crop plant damage at 80 g/ha is 0%. For the same compound, the pest or weed control at 1280 g/ha in assay [2] is 90%; in assay [5] (Echinochloa crus-galli, 504 h, application rate 1280 g/ha, read-out: post-emergence activity against ECHCG in %), 90%; in the assay with Veronica persica (VERPE) [4] (Veronica persica, 504 h, application rate 1280 g/ha, read-out: pre-emergence activity against VERPE in %), 90%. The pest or weed control at 320 g/ha was 100% in the assay on Lolium rigidum (LOLRI) (Lolium rigidum, pre-emergence, 504 h, read-out: pre-emergence activity against LOLRI in %); 90% in the assay with Kochia scoparia (KCHSC) (application rate 320 g/ha); 100% in the assay on Setaria viridis (SETVI) (application rate 320 g/ha). Besides, the pest or weed control at 80 g/ha worked out at 100% in [3] (setting [9]) and 80% in assay [6].
With `Clc1ccccc1-c1nc2c(cc1Br)SCN2` [Example I-041, 6-bromo-5-(2-chlorophenyl)-2,3-dihydro[1,3]thiazolo[4,5-b]pyridine], in the assay with Oryza sativa (ORYZA) (Oryza sativa, 504 h, application rate 320 g/ha, read-out: post-emergence activity against ORYZA in %), the percent crop plant damage at 320 g/ha was found to be 0%. The pest or weed control at 1280 g/ha in [2] amounted to 90%. For the same compound, the pest or weed control at 320 g/ha in assay [3] (Echinochloa crus-galli, pre-emergence, 504 h, application rate 320 g/ha, read-out: pre-emergence activity against ECHCG in %) was found to be 100%; in the assay with Kochia scoparia (KCHSC) (application rate 320 g/ha), 90%; in the assay on Setaria viridis (SETVI) (application rate 320 g/ha), 100%; in [5] (Echinochloa crus-galli, 504 h, application rate 320 g/ha, read-out: post-emergence activity against ECHCG in %), 100%; in the assay with Veronica persica (VERPE) [4] (setting [10]), 90%. In addition, the pest or weed control at 80 g/ha in assay [6] came to 90%.
As for `CCS(=O)(=O)N1C[S+]([O-])c2cc(C)c(-c3ccccc3C)nc21` (centres unmarked) [Example I-074], the pest or weed control at 1280 g/ha is 90% in assay [1] (Digitaria sanguinalis, post-emergence, 504 h, read-out: post-emergence activity against DIGSA in %) and 90% in assay [2]. Moreover, the pest or weed control at 320 g/ha with Veronica persica (VERPE) [7] (Veronica persica, 504 h, read-out: post-emergence activity against VERPE in %) came to 90%; with Kochia scoparia (KCHSC) (application rate 320 g/ha) it was 90%; in the assay with Setaria viridis (SETVI) (application rate 320 g/ha) it was 100%; in the assay with Veronica persica (VERPE) [4] (setting [10]), 90%. Further, the percent crop plant damage at 80 g/ha in the assay with Oryza sativa (ORYZA) (setting [8]) is 0%. For the same compound, the pest or weed control at 80 g/ha is 100% in assay [3] (setting [9]) and 90% in assay [6].
Take `CC1(C(=O)N2CSc3cc(Br)c(-c4ccccc4)nc32)CC(Cl)=NO1` (centres unmarked) [Example I-139]: the “post-emergence activity against DIGSA in %” value in assay [1] was determined as 90%. Also, the “post-emergence activity against VERPE in %” value in the assay with Veronica persica (VERPE) [7] is on record as 80%. The “pre-emergence activity against ALOMY in %” value in assay [2] is 90%. Also, the “pre-emergence activity against LOLRI in %” value in the assay with Lolium rigidum (LOLRI) is 80%. In addition, in assay [3] (application rate 320 g/ha), the “pre-emergence activity against ECHCG in %” value worked out at 100%. Further, the “post-emergence activity against KCHSC in %” value with Kochia scoparia (KCHSC) (application rate 1280 g/ha) turned out to be 90%. For the same compound, the “pre-emergence activity against SETVI in %” value in the assay on Setaria viridis (SETVI) (application rate 320 g/ha) is reported as 100%. The “post-emergence activity against ECHCG in %” value in [5] (application rate 1280 g/ha) is 90%. Further, the “pre-emergence activity against VERPE in %” value in the assay with Veronica persica (VERPE) [4] (application rate 1280 g/ha) was determined as 90%. In addition, in assay [6], the “pre-emergence activity against AMARE in %” value stood at 90%.
